Source: patent US11161856B2 (H. Lundbeck A/S, priority 2017, dated 2021)

Columns and labels:
MGLL = biological target: T1, MGLL (Mus musculus, UniProt O35678); experiment: In vitro competitive activity-based protein profiling, mouse brain proteome (MGLL); format: biochemical; conditions: for % Inh MGLL Brain (Mouse, μM): concentration not given (μM)
T1 construct: Brain; from tissue; host or cells: mouse brain proteome
T1 sequence (O35678 1-303): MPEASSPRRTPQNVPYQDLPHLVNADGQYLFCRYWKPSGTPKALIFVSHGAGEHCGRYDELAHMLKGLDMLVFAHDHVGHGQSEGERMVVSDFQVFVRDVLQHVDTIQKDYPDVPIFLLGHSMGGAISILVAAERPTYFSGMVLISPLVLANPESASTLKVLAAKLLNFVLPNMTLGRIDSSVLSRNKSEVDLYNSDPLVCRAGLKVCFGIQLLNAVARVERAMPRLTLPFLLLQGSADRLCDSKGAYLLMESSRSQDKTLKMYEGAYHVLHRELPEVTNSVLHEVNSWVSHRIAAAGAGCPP

ABHD6 = biological target: T2, ABHD6 (Mus musculus, UniProt Q8R2Y0); experiment: In vitro competitive activity-based protein profiling, mouse brain proteome (ABHD6); format: biochemical; conditions: mouse brain proteome; for % Inh ABHD6 Brain (Mouse, μM): concentration not given (μM)
T2 construct: Brain; from tissue; host or cells: mouse brain proteome
T2 sequence (Q8R2Y0 1-336): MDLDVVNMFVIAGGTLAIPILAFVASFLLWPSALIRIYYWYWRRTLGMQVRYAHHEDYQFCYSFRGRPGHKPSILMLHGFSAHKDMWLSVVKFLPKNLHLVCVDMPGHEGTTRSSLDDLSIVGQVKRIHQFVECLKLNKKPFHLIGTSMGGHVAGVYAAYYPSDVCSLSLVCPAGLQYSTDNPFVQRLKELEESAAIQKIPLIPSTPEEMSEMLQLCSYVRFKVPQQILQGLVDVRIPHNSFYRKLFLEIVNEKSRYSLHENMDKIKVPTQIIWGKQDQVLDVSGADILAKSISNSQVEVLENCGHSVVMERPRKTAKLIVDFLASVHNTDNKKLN
Protocol: [The source words this procedure for another target and reports this target under the same test.] In Vitro Competitive Activity-Based Protein Profiling.
Proteomes (human prefrontal cortex or cell membrane fractions) (50 μL, 1.0 mg/mL total protein concentration) were preincubated with varying concentrations of inhibitors at 37° C. After 30 min, FP-Rh or HT-01 (1.0 μL, 50 μM in DMSO) was added and the mixture was incubated for another 30 min at room temperature. Reactions were quenched with SDS loading buffer (15 μL-4×) and run on SDS-PAGE.

SMILES | % Inh MGLL Brain (Mouse, μM) (MGLL) | % Inh ABHD6 Brain (Mouse, μM) (ABHD6) | inhibition at 10 µM (MGLL; at 10 uM, read-out: % Inh MGLL Brain (Mouse)) [%] | inhibition at 10 µM (ABHD6; at 10 uM, read-out: % Inh ABHD6 Brain (Mouse)) [%]
CC(=O)N1CCN(c2cccc(C(F)(F)F)c2CN2CC3(CCN(C(=O)OC(C(F)(F)F)C(F)(F)F)CC3)C2)CC1 [Example 59, 1,1,1,3,3,3-Hexafluoropropan-2-yl 2-(2-(4-acetylpiperazin-1-yl)-6-(trifluoromethyl)benzyl)-2,7-diazaspiro[3.5]nonane-7-carboxylate] | ### (### is ≥75%) | ### (### is ≥75%) | – | –
CC(=O)N1CCC2(CC1)CN(c1cc(Cl)ccc1CN1CCN(C(=O)OC(C(F)(F)F)C(F)(F)F)CC1)C2 [Example 198, 1.1.1,3,3,3-Hexafluoropropan-2-yl 4-(2-(7-acetyl-2,7-diazaspiro[3.5]nonan-2-yl)-4-chlorobenzyl)piperazine-1-carboxylate] | ### (### is ≥75%) | # (# is ≤25%) | – | –
O=C(OC(C(F)(F)F)C(F)(F)F)N1CCC2(CC1)CN(Cc1cccc(F)c1)C2 [Example 97, 1,1,1,3,3,3-Hexafluoropropan-2-yl 2-(3-fluorobenzyl)-2,7-diazaspiro[3.5]nonane-7-carboxylate] | ### (### is ≥75%) | ### (### is ≥75%) | – | –
CS(=O)(=O)N1CCN(c2cccc(Cl)c2CN2CC3(CCN(C(=O)OC(C(F)(F)F)C(F)(F)F)CC3)C2)CC1 [Example 44, 1,1,1,3,3,3-Hexafluoropropan-2-yl 2-(2-chloro-6-(4-(methylsulfonyl)piperazin-1-yl)benzyl)-2,7-diazaspiro[3.5]nonane-7-carboxylate] | ### (### is ≥75%) | ### (### is ≥75%) | – | –
O=C(OC(C(F)(F)F)C(F)(F)F)N1CCC2(CC1)CN(Cc1ccc(F)cc1)C2 [Example 93, 1,1,1,3,3,3-Hexafluoropropan-2-yl 2-(4-fluorobenzyl)-2,7-diazaspiro[3,5]nonane-7-carboxylate] | ### (### is ≥75%) | ### (### is ≥75%) | – | –
O=C(OC(C(F)(F)F)C(F)(F)F)N1CCC2(CCN(Cc3ccc(Cl)c(N4CCCC4)c3)CC2)C1 [Example 172, 1,1,1,3,3,3-Hexafluoropropan-2-yl 8-(4-chloro-3-(pynolidin-1-yl)benzyl)-2,8-diazaspiro[4.5]decane-2-carboxylate] | – | – | > 75 | 25 to 75
O=C(OC(C(F)(F)F)C(F)(F)F)N1CCC2(CC1)CN(Cc1ccc(Cl)cc1N1CCOCC1)C2 [Example 39, 1,1,1,3,3,3-Hexafluoropropan-2-yl 2-(4-chloro-2-morpholinobenzyl)-2,7-diazaspiro[3.5]nonane-7-carboxylate] | ### (### is ≥75%) | ### (### is ≥75%) | – | –
O=C(OC(C(F)(F)F)C(F)(F)F)N1CCC2(CC1)CN(Cc1c(Cl)cccc1N1CCCC1)C2 [Example 42, 1,1,1,3,3,3-Hexafluoropropan-2-yl 2-(2-chloro-6-(pyrrolidin-1-yl)benzyl)-2,7-diazaspiro[3.5]nonane-7-carboxylate] | ### (### is ≥75%) | ### (### is ≥75%) | – | –
CS(=O)(=O)N1CCC2(CCN(c3cc(CN4CCCC45CN(C(=O)OC(C(F)(F)F)C(F)(F)F)C5)cc(C(F)(F)F)c3)CC2)C1 [Example 233, 1,1,1,3,3,3-Hexafluoropropan-2-yl 5-(3-(2-(methylsulfonyl)-2,8-diazaspiro[4.5]decan-8-yl)-5-(trifluoromethyl)benzyl)-2,5-diazaspiro[3.4]octane-2-carboxylate] | ### (### is ≥75%) | ## (## is between 25 and 75%) | – | –
COc1ccccc1CN1CC2(CCN(C(=O)OC(C(F)(F)F)C(F)(F)F)CC2)C1 [Example 92, 1,1,1,3,3,3-Hexafluoropropan-2-yl 2-(2-methoxybenzyl)-2,7-diazaspiro[3.5]nonane-7-carboxylate] | ### (### is ≥75%) | ### (### is ≥75%) | – | –
CN1CCCC12CCN(c1cc(Cl)ccc1CN1CCN(C(=O)OC(C(F)(F)F)C(F)(F)F)CC1)CC2 [Example 214, 1,1,1,3,3,3-Hexafluoropropan-2-yl 4-(4-chloro-2-(1-methyl-1,8-diazaspiro[4.5]decan-8-yl)benzyl)piperazine-1-carboxylate] | ### (### is ≥75%) | # (# is ≤25%) | – | –
Cc1cc(N2CCOCC2)ccc1CN1CC2(CCN(C(=O)OC(C(F)(F)F)C(F)(F)F)CC2)C1 [Example 82, 1,1,1,3,3,3-Hexafluoropropan-2-yl 2-(2-methyl-4-morpholinobenzyl)-2,7-diazaspiro[3.5]nonane-7-carboxylate] | ### (### is ≥75%) | ### (### is ≥75%) | – | –
O=C(OC(C(F)(F)F)C(F)(F)F)N1CCC2(CCN(Cc3ccc(C(F)(F)F)cc3N3CC4COCC4C3)CC2)C1 (stereo not drawn) [Example 188, 1,1,1,3,3,3-Hexafluoropropan-2-yl 8-(2-(tetrahydro-1H-furo[3,4-c]pyrrol-5(3H)-yl)-4-(trifluoromethyl)benzyl)-2,8-diazaspiro[4.5]decane-2-carboxylate] | ### (### is ≥75%) | # (# is ≤25%) | – | –
Cc1cc(-c2ccccc2)ccc1CN1CCC2(CC1)CN(C(=O)OC(C(F)(F)F)C(F)(F)F)C2 [Example 19, 1,1,1,3,3,3-Hexafluoropropan-2-yl 7-((3-methyl-[1,1′-biphenyl]-4-yl)methyl)-2,7-diazaspiro[3.5]nonane-2-carboxylate] | ## (## is between 25 and 75%) | ### (### is ≥75%) | – | –
CS(=O)(=O)N1CC2(CCN(c3cc(Cl)ccc3CN3CCN(C(=O)OC(C(F)(F)F)C(F)(F)F)CC3)CC2)C1 [Example 212, 1,1,1,3,3,3-Hexafluoropropan-2-yl 4-(4-chloro-2-(2-(methylsulfonyl)-2,7-diazaspiro[3.5]nonan-7-yl)benzyl)piperazine-1-carboxylate] | ### (### is ≥75%) | ## (## is between 25 and 75%) | – | –
CS(=O)(=O)N1CCC2(CCN(c3cc(Cl)cc(CN4CCCC45CN(C(=O)OC(C(F)(F)F)C(F)(F)F)C5)c3)C2)CC1 [Example 237, 1,1,1,3,3,3-Hexafluoropropan-2-yl 5-(3-chloro-5-(8-(methylsulfonyl)-2,8-diazaspiro[4.5]decan-2-yl)benzyl)-2,5-diazaspiro[3.4]octane-2-carboxylate] | ### (### is ≥75%) | ## (## is between 25 and 75%) | – | –
CS(=O)(=O)N1CCCC12CCN(c1cc(Cl)ccc1CN1CCN(C(=O)OC(C(F)(F)F)C(F)(F)F)CC1)CC2 [Example 205, 1,1,1,3,3,3-Hexafluoropropan-2-yl 4-(4-chloro-2-(l-(methylsulfonyl)-1,8-diazaspiro[4.5]decan-8-yl)benzyl)piperazine-l-carboxylate] | ### (### is ≥75%) | ## (## is between 25 and 75%) | – | –
CCN1CC2(CCN(c3cc(C(F)(F)F)ccc3CN3CCN(C(=O)OC(C(F)(F)F)C(F)(F)F)CC3)C2)C1 [Example 184, 1,1,1,3,3,3-Hexafluoropropan-2-yl 4-(2-(2-ethyl-2,6-diazaspiro[3,4]octan-6-yl)-4-(trifluoromethyl)benzyl) piperazine-1-carboxylate] | ### (### is ≥75%) | # (# is ≤25%) | – | –
CC(=O)N1CCC2(CC1)CCN(c1cc(Cl)cc(CN3CCCC34CN(C(=O)OC(C(F)(F)F)C(F)(F)F)C4)c1)C2 [Example 236, 1,1,1,3,3,3-Hexafluoroprupan-2-yl 5-(3-(8-acetyl-2,8-diazaspiro[4.5]decan-2-yl)-5-chlorobenzyl)-2,5-diazaspiro[3.4]octane-2-carboxylate] | ### (### is ≥75%) | ### (### is ≥75%) | – | –
CCN1CCCc2cccc(CN3CCC4(CC3)CN(C(=O)OC(C(F)(F)F)C(F)(F)F)C4)c21 [Example 31, 1,1,1,3,3,3-Hexafluoropropan-2-yl 7-((1-ethyl-1,2,3,4-tetrahydroquinolin-8-yl)methyl)-2,7-diazaspiro[3.5]nonane-2-carboxylate] | ## (## is between 25 and 75%) | ### (### is ≥75%) | – | –
CS(=O)(=O)N1CCC2(CCN(c3ccccc3CN3CCN(C(=O)OC(C(F)(F)F)C(F)(F)F)CC3)C2)C1 (stereo not drawn) [Example 165, 1,1,1,3,3,3-Hexafluoropropan-2-yl 4-(2-(7-(methylsulfonyl)-2,7-diazaspiro[4.4]nonan-2-yl)benzyl)piperazine-1-carboxylate] | ### (### is ≥75%) | # (# is ≤25%) | – | –
